{"source": "paper PMC4226669", "about": "“Anti-cancer potency of tasquinimod is enhanced via albumin-binding facilitating increased uptake in the tumor microenvironment” (Oncotarget, 2014)", "key": {"[1]": {"assay": "Protein binding fraction (PBF) in bovine fetal serum", "assay_type": "in vitro ADME", "conditions": "bovine fetal serum (FBS), 1-50 μM radiolabeled tasquinimod", "method": "An explanation for this highly restricted cellular uptake in the blood is provided by the fact that protein binding fraction (PBF) for tasquinimod in nude mouse plasma is 98 ± 1%. This is not a nude mouse specific effect since incubation of 1-50 μM radiolabeled tasquinimod with human plasma or bovine fetal serum (FBS) results in a PBF of ~ 98%.\nMice were orally gavaged with ^14C-labeled tasquinimod at a dose of 5mg/kg and 1 hour later blood collected and plasma isolated and the PBF determined as described previously using Centrifree® YM-30 centrifuge filter unit with a molecular weight cutoff of 30K (i.e., Millipore, Billerica,MO)."}, "[2]": {"assay": "Nadir plasma concentration after 5 days oral dosing in C57Bl/6J mice", "assay_type": "in vivo, mouse", "conditions": "5 mg/kg/day oral gavage, end of 5 days", "method": "To determine whether this chronic 5 mg/kg/day oral dosing regimen produces similar blood concentrations in mice as obtained in human trials, intact adult male C57Bl/6J mice (n=4) were given ^14C- radiolabeled tasquinimod via oral gavage and then the plasma concentration of drug at the end of 5 days determined based upon radioactivity levels."}, "[3]": {"test_system": "CWR-22Rv1 prostate cancers", "assay": "Vascular volume, albumin-Evans Blue accumulation (EPR effect) and growth in CWR-22Rv1 bearing mice treated with tasquinimod", "assay_type": "in vivo, mouse", "method": "To evaluate the potential importance of an EPR effect for enhancing tumor specific tasquinimod uptake and thus anti-cancer potency, albumin retention in plasma and normal tissue vs. prostate cancer was determined. To do this, nude mice bearing CWR-22Rv1 prostate cancers were injected intravenously (IV) with Evans Blue (EB) at a dose (10mg/kg) so that all of the dye is initially bound to albumin within the blood. Twenty-four hours later, the amount of albumin-EB complex retained in plasma vs. accumulated in liver, kidney, or CWR-22Rv1 prostate cancers determined. The results are expressed as concentration of extractable albumin-EB in plasma vs. the specified tissue. These studies document that prostate cancers accumulate a concentration of albumin-EB that is equal to that in the plasma by 24 hours, Figure 3C. When normalized to vascular volume, the albumin-EB accumulation by prostate cancers is more than two fold greater (p<0.05) compared to liver and more than 8 fold greater (p<0.05) compared to kidney, Figure 3C. […] Such continuous treatment with tasquinimod decreased the vascular volume within the cancers by nearly half (p<0.05), Figure 3C. […]\nTissue vascular volumes for liver, kidney, and CWR-22Rv1 cancers were determined previously via intravenous infusion of^51 Chromium (Perkin Elmer, Shelton, CT) labeled red blood cells and the result expressed as percent vascular volume as described previously.\nEPR effect was determined using Evans Blue as described previously with the modification that 24 hours after the albumin in the blood of tumor bearing nude mice was labeled via IV injection of Evans Blue (EB) at a dose of 10mg/kg, the animals were anesthetized, blood collected, and then animals were perfused with saline to remove blood from the host tissues before harvesting liver, kidney, and prostate cancer xenograft tissue. The results are expressed as the concentration of EB-labeled albumin retained in the blood or specified tissue."}, "[4]": {"test_system": "CWR-22Rv1, LAPC-4, LNCaP and HUVEC cells", "assay": "Nuclear drug uptake in 3 prostate cancer lines and HUVEC", "assay_type": "cell-based, human", "text": "To determine the total nuclear concentration of drug (Nt), a modified protocol was needed to allow the rapid lyses of cells and rapid isolation of cell nuclei by differential centrifugation. This could not be accomplished using the usual method of detergent lyses because detergents extract bound drug due to its lipophilicity. Therefore, a detergent free protocol using nitrogen cavitation was developed to rapidly lyse cells and allow the rapid isolation of nuclei via differential centrifugation. Using this cavitation protocol, it was documented that within 1 hour, total nuclear drug concentration (Nt) equals that of the protein-free drug concentration in the media (i.e., 0.2 μM), and that after 4 hours equals PMt (i.e., see Figure 3B, right panel for representative results for the CWR-22Rv1 cells). From 8 hours onward, Nt is more than 10 fold higher than the free and 2 fold higher than the total drug concentration in the media, Figure 3B, right panel. For example at 24 hours post exposure to 1 μM tasquinimod in 10% FBS containing media, the Nt is 2.4 ± 0.3 μM, Figure 3B, right panel. At this 24 hours period, total radioactive drug in isolated nuclei from all 3 prostate cancer lines, as well as HUVEC cells (i.e., nuclear concentration in these 4 lines ranged from 2.2-3.1 μM) was extracted with acetonitrile and the extracts analyzed by HPLC. […] To resolve this, nuclear uptake was determined 24 hours post exposure to 1 μM tasquinimod in serum free media. These studies again documented that nuclear tasquinimod concentration in these 4 cell lines ranged from 2.5-3.5 μM documenting that binding to albumin is not required for cell uptake.\nTo specifically determine the concentration of tasquinimod within the cell nucleus, 10^7 cells were incubated in 1ml of tissue culture media containing 10% fetal bovine serum (FBS) plus 1μM ^14C-labeled tasquinimod for varying times before the cells were centrifuged rapidly (i.e., 1000xG for 2 min) to remove the drug containing media. The cells were rapidly resuspended in phosphate buffered saline and exposed to pressurized (i.e., 500lbs/sq in) N2 in a nitrogen cavitation devise (i.e., Parr bomb, Parr Instrument Company, Moline, Il) for 5 min before the plasma membranes were lysed by the rapid release of the pressure. This detergent free procedure lyses >98% of the cells without disrupting either mitochondria or lysosomes. […] The radioactivity of this pellet was counted and used to calculate the total amount of tasquinimod associated with 10^7 cell nuclei. To determine the nuclear drug concentration, this total nuclear drug amount was […] the total volume of 10^7 cell nuclei determined from the average diameter of the nuclei determined electronically using Cellometer AutoT4."}, "[5]": {"set-up": "method as in PMID 16955399", "conditions": "adult male mice, 0.1-30 mg/kg via gavage or drinking water; cited from earlier work"}}}
{"smiles": "COc1cccc2c1c(O)c(C(=O)N(C)c1ccc(C(F)(F)F)cc1)c(=O)n2C", "note": "[Tasquinimod]", "values": [{"measurement": "fraction unbound", "setting": "[1]", "result": "~0.02"}, {"measurement": "nadir plasma concentration", "setting": "[2]", "result": "1.08 ± 0.21", "unit": "µM"}, {"measurement": "Percent Vascular Volume (Prostate Cancer)", "setting": "[3]; 10mg/kg/day for 30 days", "result": "1.4±0.4"}, {"measurement": "decrease of vascular volume within the cancers", "setting": "[3]; 10 mg/kg/day for a month", "result": "nearly half"}, {"measurement": "inhibition in cancer growth", "setting": "[3]; CWR-22Rv1, 10 mg/kg/day for a month", "result": "greater than 80%"}, {"measurement": "nuclear concentration, range over 4 lines", "setting": "[4]; 24 hours, 1 μM in 10% FBS media", "result": "2.2 to 3.1", "unit": "µM"}, {"measurement": "nuclear tasquinimod concentration, range over 4 cell lines", "setting": "[4]; 24 hours, 1 μM in serum free media", "result": "2.5 to 3.5", "unit": "µM"}, {"measurement": "drug present within nuclei that is non-metabolized tasquinimod", "setting": "[4]; 24 hours, each of 4 cell lines, HPLC", "result": "> 95", "unit": "%"}, {"measurement": "intracellular drug concentration", "setting": "[4]; exposure of cancer and endothelial cells to 0.5-1μM", "result": "2 to 3", "unit": "µM"}, {"measurement": "bioavailability and oral absorption", "setting": "[5]", "result": "excellent"}]}
